This passage reports EC50 results from patent US20250333406A1, “SULFONYL CYCLIC DERIVATIVES, AND COMPOSITIONS AND METHODS THEREOF” (Lysoway Therapeutics, Inc., priority 2023, published 2025).

The experiment relates to TFEB. Put plainly: TFEB Nuclear Translocation Assay. It counts as cell-based. Particulars: read-out: EC50 of TFEB activation.
Regarding `CC(C)S(=O)(=O)c1ccc(S(=O)(=O)n2nc(N3CCN(c4ncc(F)cc4F)CC34CC4)c3c(Cl)cccc32)s1` [Compound 45, 4-chloro-3-[7-(3,5-difluoro-2-pyridyl)-4,7-diazaspiro [2.5]octan-4-yl]-1-[(5-isopropylsulfonyl-2-thienyl)sulfonyl]indazole], the EC50 was at most 1 µM.

Regarding `CC(C)S(=O)(=O)c1ccc(S(=O)(=O)n2nc(N3CCN(c4ncc(Cl)s4)CC34CC4)c3c(Cl)cccc32)s1` [Compound 46, 5-chloro-2-[4-[4-chloro-1-[(5-isopropylsulfonyl-2-thienyl)sulfonyl]indazol-3-yl]-4,7-diazaspiro [2.5]octan-7-yl]thiazole], the EC50 is at most 1 µM.

Turning to `CC(C)S(=O)(=O)c1ccc(S(=O)(=O)n2nc(N3CCN(c4ccc(Cl)cn4)CC34CC4)c3c(Cl)cccc32)s1` [Compound 47, 4-chloro-3-[7-(5-chloro-2-pyridyl)-4,7-diazaspiro[2.5]octan-4-yl]-1-[(5-isopropylsulfonyl-2-thienyl)sulfonyl]indazole], the EC50 was at most 1 µM.

For the compound `CC(C)(C)S(=O)(=O)c1ccc(S(=O)(=O)n2nc(N3CCN(c4ccc(F)cn4)CC34CC4)c3c(Cl)cccc32)s1` [Compound 48, 1-[(5-tert-butylsulfonyl-2-thienyl)sulfonyl]-4-chloro-3-[7-(5-fluoro-2-pyridyl)-4,7-diazaspiro [2.5]octan-4-yl]indazole], the EC50 is at most 1 µM.

Turning to `CC(C)(C)S(=O)(=O)c1ccc(S(=O)(=O)n2nc(N3CCN(c4ncc(F)cn4)CC34CC4)c3c(Cl)cccc32)s1` [Compound 49, 1-((5-(tert-butylsulfonyl)thiophen-2-yl)sulfonyl)-4-chloro-3-(7-(5-fluoropyrimidin-2-yl)-4,7-diazaspiro [2.5]octan-4-yl)-1H-indazole], the EC50 is at most 1 µM.

As to `CC(C)S(=O)(=O)c1ccc(S(=O)(=O)n2nc(N3CCN(c4ncc(F)cn4)CC3C3CC3)c3c(Cl)cccc32)cc1` (centres unmarked) [Compound 50, 4-chloro-3-(2-cyclopropyl-4-(5-fluoropyrimidin-2-yl)piperazin-1-yl)-1-((4-(isopropylsulfonyl)phenyl)sulfonyl)-1H-indazole], the EC50 is at most 1 µM.

As for `CC(C)S(=O)(=O)c1ccc(S(=O)(=O)n2nc(N3CCN(c4ncc(F)cn4)CC3C3CC3)c3c(Cl)cc(F)cc32)cc1` (centres unmarked) [Compound 51, 4-chloro-3-(2-cyclopropyl-4-(5-fluoropyrimidin-2-yl)piperazin-1-yl)-6-fluoro-1-((4-(isopropylsulfonyl)phenyl)sulfonyl)-1H-indazole], the EC50 was at most 1 µM.

Consider `O=S(=O)(c1ccc(S(=O)(=O)C(F)(F)F)cc1)n1nc(N2CCN(c3ncc(F)cn3)CC23CC3)c2c(Cl)cccc21` [Compound 52, 4-chloro-3-(7-(5-fluoropyrimidin-2-yl)-4,7-diazaspiro [2.5]octan-4-yl)-1-((4-((trifluoromethyl)sulfonyl)phenyl)sulfonyl)-1H-indazole], for which the EC50 was at most 1 µM.

As to `CC(C)S(=O)(=O)c1ccc(S(=O)(=O)n2nc(N3CCC(F)(F)CC34CC4)c3c(Cl)cccc32)cc1` [Compound 53, 4-chloro-3-(7,7-difluoro-4-azaspiro [2.5]octan-4-yl)-1-(4-isopropylsulfonylphenyl) sulfonyl-indazole], the EC50 was at most 1 µM.

Turning to `CC(C)S(=O)(=O)c1ccc(S(=O)(=O)n2nc(N3CCC(Cl)(Cl)CC34CC4)c3c(Cl)cccc32)cc1` [Compound 54, 4-chloro-3-(7,7-dichloro-4-azaspiro [2.5]octan-4-yl)-1-(4-isopropylsulfonylphenyl) sulfonyl-indazole], the EC50 is at most 1 µM.

For `CC(C)S(=O)(=O)c1ccc(S(=O)(=O)n2nc(N3CCN(C(=O)C(F)(F)F)CC34CC4)c3c(Cl)cccc32)cc1` [Compound 55, 1-[4-[4-chloro-1-(4-isopropylsulfonylphenyl)sulfonyl-indazol-3-yl]-4,7-diazaspiro [2.5]octan-7-yl]-2,2,2-trifluoro-ethanone], the EC50 was at most 1 µM.

Regarding `CC(=O)N1CCN(c2nn(S(=O)(=O)c3ccc(S(=O)(=O)C(C)C)cc3)c3cccc(Cl)c23)C2(CC2)C1` [Compound 56, 1-[4-[4-chloro-1-(4-isopropylsulfonylphenyl)sulfonyl-indazol-3-yl]-4,7-diazaspiro[2.5]octan-7-yl]ethanone], the concentration giving a half-maximal response (EC50) is at most 1 µM.

For `CC(C)S(=O)(=O)c1ccc(S(=O)(=O)n2nc(N3CCN(C(=O)C4CC4)CC34CC4)c3c(Cl)cccc32)cc1` [Compound 57, [4-[4-chloro-1-(4-isopropylsulfonylphenyl)sulfonyl-indazol-3-yl]-4,7-diazaspiro[2.5]octan-7-yl]-cyclopropyl-methanone], the EC50 was at most 1 µM.

As to `CC(C)S(=N)(=O)c1ccc(S(=O)(=O)n2nc(N3CCN(c4ncc(F)cn4)CC34CC4)c3c(Cl)cccc32)cc1` (centres unmarked) [Compound 58, [4-[4-chloro-3-[7-(5-fluoropyrimidin-2-yl)-4,7-diazaspiro [2.5]octan-4-yl]indazol-1-yl]sulfonylphenyl]-imino-isopropyl-oxo-λ6-sulfane], the EC50 is at most 1 µM.

Consider `CC(C)S(=O)(=O)n1ccc(S(=O)(=O)n2nc(N3CCN(CC(F)(F)F)CC34CC4)c3c(Cl)cc(F)cc32)c1` [Compound 59, 4-chloro-6-fluoro-1-(1-isopropylsulfonylpyrrol-3-yl)sulfonyl-3-[7-(2,2,2-trifluoroethyl)-4,7-diazaspiro[2.5]octan-4-yl]indazole], for which the EC50 is at most 1 µM.

Take `CC(C)S(=O)(=O)c1ccc(S(=O)(=O)n2nc(N3CCN(c4ncc(F)cn4)C[C@@H]3C3CC3)c3c(Cl)cccc32)cc1` [Compound 60, (S)-4-chloro-3-(2-cyclopropyl-4-(5-fluoropyrimidin-2-yl)piperazin-1-yl)-1-((4-(isopropylsulfonyl)phenyl)sulfonyl)-1H-indazole]: the EC50 was at most 1 µM.

With `CC(C)S(=O)(=O)c1ccc(S(=O)(=O)n2nc(N3CCN(c4ncc(F)cn4)CC34CC4)c3c(Cl)cccc32)cc1F` [Compound 62, 4-chloro-1-(3-fluoro-4-isopropylsulfonyl-phenyl) sulfonyl-3-[7-(5-fluoropyrimidin-2-yl)-4,7-diazaspiro [2.5]octan-4-yl]indazole], the EC50 is at most 1 µM.

In the case of `CC(C)S(=O)(=O)c1ccc(S(=O)(=O)n2nc(N3CCCCC3C3CC3)c3c(Cl)cccc32)cc1` (centres unmarked) [Compound 63, 4-chloro-3-(2-cyclopropyl-1-piperidyl)-1-(4-isopropylsulfonylphenyl) sulfonyl-indazole], the half-maximal effective concentration (EC50) is at most 1 µM.

Turning to `[2H]c1c([2H])c(S(=O)(=O)n2nc(N3CCN(c4ncc(F)cn4)CC34CC4)c3c(Cl)cccc32)c([2H])c([2H])c1S(=O)(=O)C(C)C` [Compound 64, 4-chloro-3-[7-(5-fluoropyrimidin-2-yl)-4,7-diazaspiro [2.5]octan-4-yl]-1-(2,3,5,6-tetradeuterio-4-isopropylsulfonyl-phenyl) sulfonyl-indazole], the EC50 was at most 1 µM.

As for `CC(C)S(=O)(=O)c1ccc(S(=O)(=O)n2nc(N3CCN(c4ncccn4)CC34CC4)c3c(Cl)cccc32)cc1` [Compound 65, 4-chloro-1-(4-isopropylsulfonylphenyl) sulfonyl-3-(7-pyrimidin-2-yl-4,7-diazaspiro[2.5]octan-4-yl) indazole], the concentration giving a half-maximal response (EC50) was at most 1 µM.

What is called EC50 is the concentration that produces a half-maximal response.
